Measurements reported in patent US9862711B2, “Pyrazine derivatives as phosphatidylinositol 3-kinase inhibitors” (NOVARTIS AG, priority 2014, dated 2018).

Columns and labels:
[1] = target: PI 4-kinase beta (Homo sapiens (Human), UniProt Q9UBF8); assay: Kinase Glo Luminescent Kinase Assay (Assay D); assay type: biochemical; details: 1 μM ATP, read-out: Assay D PI4Kβ IC50
Excerpt: Kinase Glo Luminescent Kinase Assay (Kglo) for PI 3-Kinase Alpha (A), Pb 3-Kinase Beta (B), Vps34 (C), PI 4-Kinase Beta (D)
The luminescence-based ATP detection reagent KinaseGlo was obtained from Promega, (Cat. No. V6714, Lot No. 236161) through Catalys, Wallisellen, Switzerland. L-alpha-phosphatidylinositol (PI, liver, bovine) was obtained from Avanti Polar Lipid (Cat. No. 840042C, Lot#LPI-274), Phosphatidylinositol-4,5-bisphosphate (PIP(4,5)2) was also obtained from Avanti Polar Lipid (Cat. No. 840046X). L-α-Phosphatidylserine (PS) was obtained from Avanti Polar Lipid (Cat. No. 840032C), n-Octylglucoside from Avanti Polar Lipid (Cat. No. 10634425001). Luminescence is a well established readout to determine ATP concentrations and can thus be used to follow the activity of many kinases regardless of their substrate. The Kinase Glo Luminescent Kinase Assay (Promega, Madison/WI, USA) is a homogeneous HTS method of measuring kinase activity by quantifying the amount of ATP remaining in solution following a kinase reaction.
50 nL of compound dilutions were dispensed onto black 384-well low volume Non Binding Styrene (NBS) plates (Costar Cat. No. NBS#3676). L-α-phosphatidylinositol (PI), provided as 10 mg/ml solution in methanol, was transferred into a glass tube and dried under a nitrogen beam. It was then resuspended in 3% OctylGlucoside (1-O-n-octyl-beta-D-glucopyranoside) by vortexing and stored at 4° C. 5 μL of a mix of PI/OctylGlucoside with the PI 3-kinase alpha and PI 3-kinase beta subtypes, or Vps34 or PI 4-kinase beta were added. Kinase reactions were started by the addition of 5 μl of an ATP-mix containing in a final volume 10 μL 10 mM TRIS-HCl pH 7.5, 3 mM MgCl2, 50 mM NaCl, 0.05% CHAPS, 1 mM DTT and 1 μM ATP at room temperature. Reactions were stopped with 10 μl of KinaseGlo and plates were read 10 mins later in a Synergy2 reader using an integration time of 0.1 seconds per well. 2.5 μM of NVP-BGT226 (1-(3-(trifluoromethyl)-4-(piperazin-1-yl)phenyl)-8-(6-methoxypyridin-3-yl)-3-methyl-1H-imidazo[4,5-c]quinolin-2(3H)-one) was added to the assay plates to generate the 100% inhibition of the kinase reaction, and the 0% inhibition was given by the solvent vehicle (90% DMSO in water). (1-(3-(trifluoromethyl)-4-(piperazin-1-yl)phenyl)-8-(6-methoxypyridin-3-yl)-3-methyl-1H-imidazo[4,5-c]quinolin-2(3H)-one) was used as a reference compound and included in all assay plates in the form of 16 dilution points in duplicate.
IC50 values of the percentage inhibition of each compound at 8 concentrations (10, 3.0, 1.0, 0.3, 0.1, 0.030, 0.010 and 0.003 μM) n=2 were derived by fitting a sigmoidal dose-response curve to a plot of assay readout over inhibitor concentration as described. All fits were performed with the program XLfit4 (ID Business Solutions, Guildford, UK).

[2] = target: mTOR (Homo sapiens (Human), UniProt P42345); assay: Lanthascreen kinase binding assay (Assay G); details: GST-mTOR, Tracer-314
Excerpt: Lanthascreen™ Kinase Binding Assay for mTOR (G)
Binding Assays are based on the binding and displacement of an Alexa Fluor® 647-labeled, ATP-competitive kinase inhibitors to the kinase of interest. Invitrogen's “Kinase Tracers” have been developed to address a wide range of kinase targets and are based on ATP-competitive kinase inhibitors, making them suitable for detection of any compounds that bind to the ATP site or to an allosteric site altering the conformation of the ATP site.
In the Lanthascreen™ kinase binding assay, the donor (Eu^3+-anti-GST (glutathione 5-transferase) antibody) is excited at 340 nm and will transfer its energy to the acceptor (Alexa Fluor® 647-labeled ATP-competitive kinase inhibitor=Tracer-314). The emission from the Tracer-314 (Alexa Fluor® 647 inhibitor) can be monitored with a filter centered at 665 nm because it is located between the emission peaks of the donor, which is measured at 615/620 nm. The binding of both, the Tracer-314 and Eu^3+-anti-GST antibody, to the kinase results in a high degree of FRET from the Eu^3+-donor fluorophore to the Alexa-Fluor® 647-acceptor fluorophore on the Tracer-314. Binding of an inhibitor to the kinase competes for binding with the tracer, resulting in a loss of FRET.
50 nL of compound dilutions were dispensed onto white 384-well small volume polystyrene plate. Then 5 μL of GST-mTOR and Europium-anti-GST antibody followed by 5 μL of tracer-314 (final assay volume 10 μL) are incubated at RT. The standard reaction buffer for the Lanthascreen™ kinase binding assay contained 50 mM HEPES pH 7.5, 5 mM MgCl2, 1 mM EGTA, 0.01% Pluronic F-127. Plates are read 60 mins later in a Synergy2 reader using an integration time of 0.2 microseconds and a delay of 0.1 microseconds.
To calculate the emission ratio, the signal emitted at 665 nm from the acceptor (Alexa Fluor® 647-labeled Tracer-314) is divided by the signal emitted at 620 nm from the donor (Eu^3+ anti-GST antibody).
Control for the 0% inhibition was given by the solvent vehicle of the compounds (90% DMSO in H2O). Control for the relative 100% inhibition was performed by adding 10 μM in the mix containing GST-mTOR and Europium anti-GST antibody. An additional control for the absolute 0% inhibition is given by Eu^3+ anti-GST antibody without GST-mTOR. Standard compounds for the lipid kinase panel profiling were used as a reference and included in all assay plates in the form of 8 dilution points.

Chain of PI 4-kinase beta (Q9UBF8 whole entry): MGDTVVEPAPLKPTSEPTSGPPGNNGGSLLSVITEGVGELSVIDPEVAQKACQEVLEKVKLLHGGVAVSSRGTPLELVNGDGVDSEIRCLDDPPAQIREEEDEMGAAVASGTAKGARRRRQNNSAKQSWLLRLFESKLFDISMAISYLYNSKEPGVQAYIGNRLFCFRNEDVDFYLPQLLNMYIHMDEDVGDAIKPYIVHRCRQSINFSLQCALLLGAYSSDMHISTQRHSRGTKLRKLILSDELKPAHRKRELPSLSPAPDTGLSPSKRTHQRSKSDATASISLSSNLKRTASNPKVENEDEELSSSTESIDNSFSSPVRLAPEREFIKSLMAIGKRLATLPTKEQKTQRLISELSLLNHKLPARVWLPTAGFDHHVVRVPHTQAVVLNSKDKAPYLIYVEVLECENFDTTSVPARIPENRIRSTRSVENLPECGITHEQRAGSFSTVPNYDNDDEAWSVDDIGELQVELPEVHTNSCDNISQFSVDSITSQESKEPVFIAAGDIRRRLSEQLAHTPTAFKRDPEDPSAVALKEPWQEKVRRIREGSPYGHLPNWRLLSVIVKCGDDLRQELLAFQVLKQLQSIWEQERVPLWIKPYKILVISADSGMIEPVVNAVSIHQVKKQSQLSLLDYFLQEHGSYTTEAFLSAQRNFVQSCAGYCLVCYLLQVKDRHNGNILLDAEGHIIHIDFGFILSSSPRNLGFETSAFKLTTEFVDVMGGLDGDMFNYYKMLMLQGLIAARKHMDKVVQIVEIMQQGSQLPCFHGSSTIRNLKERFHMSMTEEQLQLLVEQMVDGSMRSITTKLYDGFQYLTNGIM

| Structure (SMILES) | IC50 [1] [µM] | IC50 [2] [µM] |
| --- | --- | --- |
| Cc1ccc(S(=O)(=O)NCCC(C)(C)O)cc1-c1cncc(-c2cn(C)nc2C)n1 [Example 3, 3-[6-(1,3-Dimethyl-1H-pyrazol-4-yl)-pyrazin-2-yl]-N-(3-hydroxy-3-methyl-butyl)-4-methyl-benzenesulfonamide] | > 9.55 | 3.85 |
| Cc1ccc(S(=O)(=O)NCC2(C)COC2)cc1-c1cncc(-c2cn(C)nc2C)n1 [Example 4, Trans 3-[6-(1,3-Dimethyl-1H-pyrazol-4-yl)-pyrazin-2-yl]-4-methyl-N-(3-methyl-oxetan-3-ylmethyl)-benzenesulfonamide] | > 10 | 0.89 |
| Cc1ccc(S(=O)(=O)NCC(C)(C)O)cc1-c1cncc(-c2cn(C)nc2C)n1 [Example 2, 3-[6-(1,3-Dimethyl-1H-pyrazol-4-yl)-pyrazin-2-yl]-N-(2-hydroxy-2-methyl-propyl)-4-methyl-benzenesulfonamide] | > 9.78 | 1.18 |
| Cc1ccc(S(=O)(=O)NCCC(C)(C)O)cc1-c1cncc(-c2cn(CCN3CCOCC3)nc2C)n1 [Example 10, N-(3-Hydroxy-3-methyl-butyl)-4-methyl-3-{6-[3-methyl-1-(2-morpholin-4-yl-ethyl)-1H-pyrazol-4-yl]-pyrazin-2-yl}-benzenesulfonamide] | > 10 | 9.8 |
| Cc1ncc(-c2cncc(-c3cc(S(=O)(=O)NCCCO)ccc3C)n2)s1 [Example 1, N-(3-Hydroxy-propyl)-4-methyl-3-[6-(2-methyl-thiazol-5-yl)-pyrazin-2-yl]-benzenesulfonamide] | > 9.1 | 5.25 |
| Cc1ccc(S(=O)(=O)NCC(C)(C)CO)cc1-c1cncc(-c2cn(C)nc2C)n1 [Example 8, 3-[6-(1,3-Dimethyl-1H-pyrazol-4-yl)-pyrazin-2-yl]-N-(3-hydroxy-2,2-dimethyl-propyl)-4-methyl-benzenesulfonamide] | > 9.55 | 1.95 |

Next, values leading:

| IC50 [1] [µM] | IC50 [2] [µM] | Structure (SMILES) |
| --- | --- | --- |
| > 9.1 | 4.77 | Cc1ncc(-c2cncc(-c3cc(S(=O)(=O)N[C@H]4CC[C@H](O)CC4)ccc3C)n2)s1 [Example 5, Trans N-(4-Hydroxycyclohexyl)-4-methyl-3-(6-(2-methylthiazol-5-yl)pyrazin-2-yl)benzenesulfonamide] |
| > 9.1 | 6.24 | Cc1ccc(S(=O)(=O)N[C@H]2CC[C@H](O)CC2)cc1-c1cncc(-c2cccnc2)n1 [Example 11, Trans N-(4-Hydroxy-cyclohexyl)-4-methyl-3-(6-pyridin-3-yl-pyrazin-2-yl)-benzenesulfonamide] |
| > 9.1 | > 9.1 | Cc1ccc(S(=O)(=O)NCCC(C)(C)O)cc1-c1cncc(-c2cnn(CCN3CCOCC3)c2)n1 [Example 9, N-(3-Hydroxy-3-methyl-butyl)-4-methyl-3-{6-[1-(2-morpholin-4-yl-ethyl)-1H-pyrazol-4-yl]-pyrazin-2-yl}-benzenesulfonamide] |
